Data: PubChem BioAssay AID248 (DTP/NCI, 2004)
Inconclusive results and toxic doses are left out. Rule as the data show it: active = T/C of 150% or more; inactive = T/C below 125%.

System: L1210 leukemia ip in BDF1 mice, survival T/C
Assay: NCI In Vivo Anticancer Drug Screen. Data for tumor model L1210 Leukemia (intraperitoneal) in B6D2F1 (BDF1) mice
Conditions: endpoint: mean survival time, higher = longer survival
Summary of the method: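 Value reflects the ratio of survival in compound-treated mice to survival in vehicle-treated controls, with both groups carrying the same transplanted tumor.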

[1] = dose: 100.0 mg/kg/injection, schedule: Q04DX002 (ip), vehicle: saline with Tween-80
[2] = dose: 200.0 mg/kg/injection, schedule: Q04DX002 (ip), vehicle: saline with Tween-80
[3] = dose: 400.0 mg/kg/injection, schedule: Q04DX002 (ip), vehicle: saline with Tween-80
[4] = dose: 100.0 mg/kg/injection, schedule: Q01DX001 (ip), vehicle: Klucel (hydroxypropylcellulose) (HPC)
[5] = dose: 200.0 mg/kg/injection, schedule: Q01DX001 (ip), vehicle: Klucel (hydroxypropylcellulose) (HPC)
[6] = dose: 100.0 mg/kg/injection, schedule: Q04DX003 (ip), vehicle: Klucel (hydroxypropylcellulose) (HPC)
[7] = dose: 200.0 mg/kg/injection, schedule: Q04DX003 (ip), vehicle: Klucel (hydroxypropylcellulose) (HPC)
[8] = dose: 400.0 mg/kg/injection, schedule: Q04DX003 (ip), vehicle: Klucel (hydroxypropylcellulose) (HPC)
[9] = dose: 50.0 mg/kg/injection, schedule: Q01DX001 (ip), vehicle: carboxymethylcellulose (CMC)
[10] = dose: 100.0 mg/kg/injection, schedule: Q01DX001 (ip), vehicle: carboxymethylcellulose (CMC)
[11] = dose: 200.0 mg/kg/injection, schedule: Q01DX001 (ip), vehicle: carboxymethylcellulose (CMC)
[12] = dose: 400.0 mg/kg/injection, schedule: Q01DX001 (ip), vehicle: carboxymethylcellulose (CMC)
[13] = dose: 50.0 mg/kg/injection, schedule: Q01DX009 (ip), vehicle: Klucel (hydroxypropylcellulose) (HPC)
[14] = dose: 100.0 mg/kg/injection, schedule: Q01DX009 (ip), vehicle: Klucel (hydroxypropylcellulose) (HPC)
[15] = dose: 200.0 mg/kg/injection, schedule: Q01DX009 (ip), vehicle: Klucel (hydroxypropylcellulose) (HPC)
[16] = dose: 100.0 mg/kg/injection, schedule: Q01DX001 (ip), vehicle: saline
[17] = dose: 200.0 mg/kg/injection, schedule: Q01DX001 (ip), vehicle: saline
[18] = dose: 400.0 mg/kg/injection, schedule: Q01DX001 (ip), vehicle: saline

Measured: T/C

CC(=O)CCC[CH2][Sn]([c]1ccccc1)([c]1ccccc1)[c]1ccccc1
inactive: [1] 102 % of control | [2] 91 % of control | [3] 97 % of control

CCC(=O)OC/C=C/c1ccccc1
inactive: dose: 100.0 mg/kg/injection, schedule: Q01DX009 (ip), vehicle: saline 95 % of control | dose: 100.0 mg/kg/injection, schedule: Q04DX003 (ip), vehicle: alcohol 100 % of control | dose: 200.0 mg/kg/injection, schedule: Q01DX009 (ip), vehicle: saline 102 % of control | dose: 200.0 mg/kg/injection, schedule: Q04DX003 (ip), vehicle: alcohol 98 % of control | dose: 400.0 mg/kg/injection, schedule: Q01DX009 (ip), vehicle: saline 95 % of control | dose: 400.0 mg/kg/injection, schedule: Q04DX003 (ip), vehicle: alcohol 94 % of control

Cc1cn(C2CC(O)C(COP(=O)(N3CC3)N3CC3)O2)c(=O)[nH]c1=O (stereo unspecified)
inactive: dose: 50.0 mg/kg/injection, schedule: Q04DX002 (ip), vehicle: saline 107 % of control | dose: 100.0 mg/kg/injection, schedule: Q04DX002 (ip), vehicle: saline 100 % of control | dose: 200.0 mg/kg/injection, schedule: Q04DX002 (ip), vehicle: saline 94 % of control

NC(=O)COc1ccc(Cl)c2ccccc12
inactive: [4] 96 % of control | dose: 100.0 mg/kg/injection, schedule: Q04DX002 (ip), vehicle: Klucel (hydroxypropylcellulose) (HPC) 86 % of control | [5] 102 % of control | dose: 200.0 mg/kg/injection, schedule: Q04DX002 (ip), vehicle: Klucel (hydroxypropylcellulose) (HPC) 99 % of control | dose: 400.0 mg/kg/injection, schedule: Q01DX001 (ip), vehicle: Klucel (hydroxypropylcellulose) (HPC) 86 % of control | dose: 400.0 mg/kg/injection, schedule: Q04DX002 (ip), vehicle: Klucel (hydroxypropylcellulose) (HPC) 99 % of control

O=C1C=CC(=O)N1c1ccccc1[N+](=O)[O-]
inactive: dose: 1.5 mg/kg/injection, schedule: Q01DX009 (ip), vehicle: Klucel (hydroxypropylcellulose) (HPC) 97 % of control | dose: 3.0 mg/kg/injection, schedule: Q01DX009 (ip), vehicle: Klucel (hydroxypropylcellulose) (HPC) 103 % of control | dose: 6.0 mg/kg/injection, schedule: Q01DX009 (ip), vehicle: Klucel (hydroxypropylcellulose) (HPC) 94 % of control

CN(C)/C=N\c1ncnc2c1ncn2C1OC(CO)C(O)C1O (stereo unspecified)
inactive: [1] 102 % of control | [2] 98 % of control | [3] 102 % of control

Cc1nccnc1S(=O)(=O)c1ccc2ccccc2c1
inactive: [4] 101 % of control | [5] 97 % of control

CC(=O)Nc1ccc(S(=O)(=O)F)cc1[N+](=O)[O-]
inactive: dose: 100.0 mg/kg/injection, schedule: Q01DX009 (ip), vehicle: saline sonified 93 % of control | [6] 97 % of control | dose: 200.0 mg/kg/injection, schedule: Q01DX009 (ip), vehicle: saline sonified 114 % of control | [7] 93 % of control | dose: 400.0 mg/kg/injection, schedule: Q01DX009 (ip), vehicle: saline sonified 101 % of control | [8] 93 % of control

COC(=O)CC(=O)c1ccc2ccccc2n1
inactive: [9] 108 % of control | [10] 100 % of control | [11] 97 % of control | [12] 105 % of control

CN(C)CCCNC(=O)C1C(c2ccccc2)C1c1ccccc1 (stereo unspecified)
inactive: dose: 12.5 mg/kg/injection, schedule: Q04DX002 (ip), vehicle: saline with Tween-80 102 % of control | dose: 25.0 mg/kg/injection, schedule: Q04DX002 (ip), vehicle: saline with Tween-80 102 % of control | dose: 50.0 mg/kg/injection, schedule: Q04DX002 (ip), vehicle: saline with Tween-80 91 % of control

CC(C)(c1cc(Br)sc1Br)c1cc(Br)sc1Br
inactive: [13] 95 % of control | [14] 98 % of control | dose: 100.0 mg/kg/injection, schedule: Q04DX003 (ip), vehicle: acetone 106 % of control | [15] 101 % of control | dose: 200.0 mg/kg/injection, schedule: Q04DX003 (ip), vehicle: acetone 117 % of control | dose: 400.0 mg/kg/injection, schedule: Q04DX003 (ip), vehicle: acetone 104 % of control

N#Cc1cc(Cl)cn1O
inactive: dose: 100.0 mg/kg/injection, schedule: Q04DX002 (ip), vehicle: other 91 % of control | dose: 200.0 mg/kg/injection, schedule: Q04DX002 (ip), vehicle: other 99 % of control

O=C(Nc1ccc(C2=NCCN2)cc1)Nc1ccccc1NC(=O)Nc1ccc(C2=NCCN2)cc1
inactive: dose: 3.12 mg/kg/injection, schedule: Q01DX Z (ip), vehicle: water 100 % of control | dose: 6.25 mg/kg/injection, schedule: Q01DX Z (ip), vehicle: water 117 % of control | dose: 12.5 mg/kg/injection, schedule: Q01DX Z (ip), vehicle: water 105 % of control

O=C1NCC(c2ccccc2)(c2ccccc2)C(=O)N1
inactive: [9] 94 % of control | [10] 94 % of control | [11] 91 % of control | [12] 86 % of control

Nc1cc2c(cc1N)-c1ccccc1/C2=N\O
inactive: dose: 75.0 mg/kg/injection, schedule: Q01DX001 (ip), vehicle: carboxymethylcellulose (CMC) 102 % of control | dose: 150.0 mg/kg/injection, schedule: Q01DX001 (ip), vehicle: carboxymethylcellulose (CMC) 91 % of control

Cc1nc(N)[nH]c(=O)c1CCCNc1ccc(CCC(=O)CCl)cc1
inactive: dose: 50.0 mg/kg/injection, schedule: Q01DX Z (ip), vehicle: carboxymethylcellulose (CMC) 94 % of control | dose: 100.0 mg/kg/injection, schedule: Q01DX Z (ip), vehicle: carboxymethylcellulose (CMC) 94 % of control | dose: 200.0 mg/kg/injection, schedule: Q01DX Z (ip), vehicle: carboxymethylcellulose (CMC) 86 % of control

CC(C)(C)c1ccc(C(c2ccc(C(C)(C)C)cc2)C(Cl)Cl)cc1
inactive: [6] 113 % of control | [7] 96 % of control | [8] 97 % of control

Cc1ccc(NC(=O)Oc2ccccc2C(N)=O)cc1NC(=O)Oc1ccccc1C(N)=O
inactive: [14] 93 % of control | [15] 94 % of control | dose: 400.0 mg/kg/injection, schedule: Q01DX009 (ip), vehicle: Klucel (hydroxypropylcellulose) (HPC) 89 % of control

CC(C)OC(=S)SSC(=S)OC(C)C
inactive: [13] 105 % of control | [16] 96 % of control | [14] 92 % of control | dose: 100.0 mg/kg/injection, schedule: Q04DX003 (ip), vehicle: other 107 % of control | [17] 100 % of control | [15] 90 % of control | dose: 200.0 mg/kg/injection, schedule: Q04DX003 (ip), vehicle: other 98 % of control | [18] 102 % of control

CCOC(=O)c1ccc(NCc2cnc3nc(N)nc(N)c3n2)cc1
inactive: dose: 3.0 mg/kg/injection, schedule: Q01DX009 (ip), vehicle: other 106 % of control | dose: 6.0 mg/kg/injection, schedule: Q01DX009 (ip), vehicle: other 102 % of control | dose: 12.0 mg/kg/injection, schedule: Q01DX009 (ip), vehicle: other 98 % of control | dose: 24.0 mg/kg/injection, schedule: Q01DX009 (ip), vehicle: other 98 % of control

CCN(CC)CCC(=O)OC
inactive: dose: 50.0 mg/kg/injection, schedule: Q01DX001 (ip), vehicle: saline 97 % of control | [16] 100 % of control | [17] 100 % of control | [18] 97 % of control
